{
  "source": "a melting point compilation (Tetko et al.; mined from patent text by program, amines drawn as free bases though some values may be those of a salt)",
  "data": [
    {"units": {"melting point": "°C"}, "values": [
      {"compound": "CC(C)(CCC(=O)O)C(=O)Oc1cc(Cl)ccc1Oc1ccc(Cl)cc1Cl", "melting point": "125 to 128"},
      {"compound": "CN1OCCN(c2ccc(Cl)cc2Cl)C1=O", "melting point": "94 to 95"},
      {"compound": "CC(C)=CCn1c(-c2ccc3c(c2)OCO3)nc2ccccc21", "melting point": "73.8 to 76"},
      {"compound": "CCNCC1CCN(c2c(F)cc3c(=O)c(C(=O)O)cn(CC(F)(F)F)c3c2F)C1", "note": "(stereo unspecified)", "melting point": "222 to 224"},
      {"compound": "O=C(CN1C(=O)CC1S(=O)Cc1ccccc1)NCCCCCCc1ccccc1", "note": "(stereo unspecified)", "melting point": "138 to 140"},
      {"compound": "COc1ccc(S(=O)(=O)C(Nc2c(Br)cc(C)cc2C(=O)O)c2cccnc2)cc1", "note": "(stereo unspecified)", "melting point": 198},
      {"compound": "CC1NC(=O)NN=C1c1ccc(OCC(=O)NCCN2CCN(C(=O)c3ccc(Cl)cc3)CC2)c(Cl)c1", "note": "(stereo unspecified)", "melting point": "186 to 188"},
      {"compound": "COc1c(F)c(NCc2ccccc2)c(F)c(OC)c1C(=O)O", "melting point": "85 to 86"},
      {"compound": "O=C(O)CC(Sc1ccccc1)c1ccc(Cl)cc1", "note": "(stereo unspecified)", "melting point": "99 to 102"},
      {"compound": "CC(C)(C)Oc1ccc(CCC(=O)OCc2ccc([N+](=O)[O-])cc2)cc1", "melting point": "30 to 32"},
      {"compound": "CCNc1cccc(NC(=O)COCC)c1C#N", "melting point": "84 to 87"},
      {"compound": "Cc1cc(-c2ccccc2)nn1C(C)C(=O)N(C)C", "note": "(stereo unspecified)", "melting point": "98 to 99"},
      {"compound": "Cc1oc(-c2ccccc2)nc1COc1cncc(COc2ccc(CC(=O)O)cc2)c1", "melting point": "141 to 142"},
      {"compound": "COCCOc1cc2c(cc1C#Cc1ccccc1)NC(=O)CC(c1cccc(C#N)c1)=N2", "melting point": "174 to 176"},
      {"compound": "CCCn1c(=O)c2[nH]c(-c3cc(C)n(CC(=O)Nc4ccc(Cl)cc4)n3)nc2n(CCC)c1=O", "melting point": "261 to 265"},
      {"compound": "CC1(C)[C@H](CN2CCCCS2(=O)=O)CC[C@]1(C)NCC(=O)N1C[C@@H](F)C[C@H]1C#N", "melting point": "186 to 190"},
      {"compound": "O=C(NCC#CCN1CCOCC1)N1c2ccccc2-c2noc3c2C1CCC3", "note": "(stereo unspecified)", "melting point": 186},
      {"compound": "CCCC[C@H](NC(=O)[C@H](CC(C)C)NC(=O)OCc1ccccc1)C(=O)CSC", "melting point": "80 to 82"},
      {"compound": "Oc1ccccc1-c1ccc2nonc2c1", "melting point": "166 to 169"},
      {"compound": "Nc1ccccc1Cn1[nH]c2ccccc2c1=O", "melting point": "204 to 205"},
      {"compound": "Cc1nccn1-c1cc(N)cc(C(F)(F)F)c1", "melting point": "127 to 131"},
      {"compound": "CCc1nn(C2CCCC2)c2c1CCn1c(-c3cccs3)nnc1-2", "melting point": 126},
      {"compound": "CCn1ccc(Nc2cc(-c3cccc(N4Cc5cc(C(C)(C)C)ccc5C4=O)c3CO)cn(C)c2=O)n1", "melting point": "175 to 177"},
      {"compound": "COC(=O)c1ccc(=O)n(-c2ccccc2)c1", "melting point": "100 to 105"},
      {"compound": "O=C(O)C(Sc1ccccc1)c1cc(Cl)cc(Cl)c1", "note": "(stereo unspecified)", "melting point": "115 to 119"},
      {"compound": "O=C(O)COc1cc(F)ccc1C(=O)NCc1cccc([N+](=O)[O-])c1", "melting point": "148 to 151"},
      {"compound": "COc1ccc(OC)c(C(=O)c2cc3cc(OC)ccc3o2)c1", "melting point": "119 to 121"},
      {"compound": "CC(C)C(C(=O)O)c1ccc(N=[N+]=[N-])cc1", "note": "(stereo unspecified)", "melting point": "95 to 97"},
      {"compound": "CCn1nc(-c2c(-c3ccc(F)cc3)nn3ccc(OC)cc23)ccc1=O", "melting point": "179 to 180"},
      {"compound": "Nc1ccc(S(=O)(=O)Nc2cccc3c(Cl)c[nH]c23)cc1", "melting point": "174 to 176"},
      {"compound": "Cc1ccc(S(=O)(=O)c2ccc3c(c2)c(CCNC(=O)OC(C)(C)C)cn3C)cc1", "melting point": "144 to 148"},
      {"compound": "CCC(CC)n1nnc2c(Nc3c(C)cc(C)cc3C)nc(C)cc21", "melting point": "140 to 142"},
      {"compound": "O=C(O)c1nn(-c2ccc(Cl)cc2Cl)c2c1CCCC2", "melting point": "239 to 240"},
      {"compound": "Cc1ncoc1C(C)(O)c1ccco1", "note": "(stereo unspecified)", "melting point": "73 to 75"},
      {"compound": "CCCCCCCCCCSCCCCCCCCCCNC(=O)OCCN1CCOCC1", "melting point": 91},
      {"compound": "O=C1CCC(c2ccc3nc(-c4ccncc4)[nH]c3c2)=NN1", "melting point": "> 320"},
      {"compound": "CC(C)CCC(=O)Nc1ccc2oc3c(c2c1)CCCC3", "melting point": 146},
      {"compound": "COc1ccc(-c2nn(CC3CC3)c(=O)cc2-c2ccc(OC)c(F)c2)cc1", "melting point": "135 to 136"},
      {"compound": "CC(C)CN1C(=O)C(C)(C)C(=O)Nc2cc(C=O)ccc21", "melting point": "154 to 155"},
      {"compound": "CC(=O)c1ccc2c(c1)Sc1cc(Br)ccc1O2", "melting point": "143 to 145"},
      {"compound": "CN(C)CCNC(=O)c1cccc2cc[nH]c12", "melting point": "100 to 102"},
      {"compound": "O=C(Oc1ccccc1OC(=O)c1ccccc1)c1ccccc1", "melting point": "75 to 77"},
      {"compound": "CCCNC(=O)C(C)=Cc1ccc2c(c1)c(Cc1ccc(C(=O)O)cc1OC)cn2C", "melting point": "89 to 95"},
      {"compound": "COc1nc(C)cnc1NS(=O)(=O)c1ccccc1-c1ccc(CC(C)(C)C(=O)O)cc1", "melting point": "202 to 204"},
      {"compound": "COc1ccccc1C(=O)c1cc([N+](=O)[O-])ccc1SC", "melting point": "119 to 122"},
      {"compound": "O=c1c2c(Cl)cc(Cl)cc2nc2n1CCCCC2", "melting point": "110 to 112"},
      {"compound": "O=[N+]([O-])c1cccc(-c2ccnc3c(-c4ccsc4)cnn23)c1", "melting point": "148 to 150"},
      {"compound": "Oc1ccc2nc(-c3cccc(Br)c3)oc2c1", "melting point": 248},
      {"compound": "CCc1nc2c(C)cc(C)nc2n1Cc1ccc2c(c1)CCc1ccccc1N2CC(=O)O", "melting point": "114 to 115"},
      {"compound": "CC1(C)C=C(c2ccccn2)c2cc(Cl)c(Cl)cc2OC1", "melting point": 98},
      {"compound": "COc1ccc(N(CC(=O)OC(C)(C)C)C(=O)CNC(=O)Nc2cccc(C)c2)cc1", "melting point": 158}
    ]}
  ]
}
